Experimental data published in US10414811B2, “Protease-resistant lipidated GLP-1 analogs” (MEDIMMUNE LIMITED, priority 2015, dated 2019).
pEC50: −log10 of the molar value. Where two headings read alike, the source gives them in different places. Square brackets hold non-standard residues; d marks the D form. Peptide text beside a SMILES is read from it. αMeF = C[C@](N)(Cc1ccccc1)C(=O)O; αMeK = C[C@](N)(CCCCN)C(=O)O; αMeS = C[C@](N)(CO)C(=O)O; Aib = CC(C)(N)C(=O)O

Legend:
Assay type in all cases: cell-based
[1] = target: T1, human GLP-1 receptor (GLP-1R) (Homo sapiens, UniProt P43220); assay: cAMP assay, human GLP-1R cells; settings: for pEC50: cAMP assay; for EC50: mean of n1 and n2, read-out: Mean pM GLP-1R
T1 construct: expressed in transfected cells
How it was run: (§1)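 Peptide-stimulated cAMP measured by two-step HTRF after a 30 min room-temperature incubation with receptor-expressing cells (hGLP-1R, hGIPR at 1×10^5 cells/ml; hGCGR at 2×10^5 cells/ml). Duplicate dilutions; EC50 from 4-parameter logistic fit of % Delta F.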

[2] = target: T2, human glucagon receptor (GCGR) (Homo sapiens, UniProt P47871); assay: cAMP assay, human GCGR cells; settings: cAMP assay
T2 construct: expressed in transfected cells
How it was run: as §1

[3] = target: T3, human glucose-dependent insulinotropic peptide receptor (GIPR) (Homo sapiens, UniProt P48546); assay: cAMP assay, human GIPR cells; settings: cAMP assay
T3 construct: expressed in transfected cells
T3 sequence (P48546 22-466): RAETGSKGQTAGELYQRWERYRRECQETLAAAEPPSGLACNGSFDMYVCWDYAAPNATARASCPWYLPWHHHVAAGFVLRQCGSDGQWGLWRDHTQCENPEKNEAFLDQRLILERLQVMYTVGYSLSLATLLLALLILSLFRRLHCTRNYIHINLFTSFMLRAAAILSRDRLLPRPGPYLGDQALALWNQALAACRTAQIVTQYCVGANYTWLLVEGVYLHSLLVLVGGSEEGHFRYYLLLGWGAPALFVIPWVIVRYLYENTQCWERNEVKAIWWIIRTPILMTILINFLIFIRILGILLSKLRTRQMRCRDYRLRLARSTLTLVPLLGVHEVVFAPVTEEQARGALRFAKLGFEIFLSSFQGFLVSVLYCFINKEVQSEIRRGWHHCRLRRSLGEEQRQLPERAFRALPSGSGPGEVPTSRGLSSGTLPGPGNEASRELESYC
How it was run: as §1

GLP-1R (INS1e assay) = target: T4, GLP-1R (INS1e assay) (Rattus norvegicus, UniProt P32301); assay: INS1e assay, cAMP activity at GLP-1R; settings: mono-lipidated peptides; for EC50: mean of n1 and n2, read-out: INS1e assay EC50 Mean pM GLP-1R
T4 construct: endogenous in cells; host or cells: INS-1E cells
T4 sequence (P32301 22-463): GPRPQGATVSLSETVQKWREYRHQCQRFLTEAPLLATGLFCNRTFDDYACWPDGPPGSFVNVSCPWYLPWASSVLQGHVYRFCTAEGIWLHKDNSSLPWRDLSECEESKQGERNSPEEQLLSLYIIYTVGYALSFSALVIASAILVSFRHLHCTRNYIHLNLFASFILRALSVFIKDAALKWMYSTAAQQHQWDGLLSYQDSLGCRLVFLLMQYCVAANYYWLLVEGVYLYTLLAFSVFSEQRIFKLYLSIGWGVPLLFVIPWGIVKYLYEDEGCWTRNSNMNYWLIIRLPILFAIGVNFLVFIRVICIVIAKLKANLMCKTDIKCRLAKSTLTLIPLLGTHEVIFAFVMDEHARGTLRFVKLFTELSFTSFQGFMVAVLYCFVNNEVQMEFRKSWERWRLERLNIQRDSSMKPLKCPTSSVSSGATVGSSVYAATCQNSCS
How it was run: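 cAMP was quantified by two-step HTRF, using anti-cAMP cryptate donor and cAMP-d2 acceptor, each diluted 1/20 in conjugate and lysis buffer. EC50 values of the synthetic peptides were derived from the cAMP readout.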

[4] = first determination (n1), read-out: Primary assay EC50 GLP-1R n1
[5] = first determination (n1), read-out: Primary assay EC50 Gluc-R (n1)
[6] = second determination (n2), read-out: Primary assay EC50 Gluc-R (n2)
[7] = first determination (n1), read-out: Primary assay EC50 GIP-R (n1)
[8] = second determination (n2), read-out: Primary assay EC50 GIP-R (n2)
[9] = replicate n1, read-out: INS1e assay EC50 GLP-1R n1
[10] = replicate n2, read-out: INS1e assay EC50 GLP-1R n2
[11] = second determination (n2), read-out: Primary assay EC50 GLP-1R n2

T1 sequence (P43220 24-463): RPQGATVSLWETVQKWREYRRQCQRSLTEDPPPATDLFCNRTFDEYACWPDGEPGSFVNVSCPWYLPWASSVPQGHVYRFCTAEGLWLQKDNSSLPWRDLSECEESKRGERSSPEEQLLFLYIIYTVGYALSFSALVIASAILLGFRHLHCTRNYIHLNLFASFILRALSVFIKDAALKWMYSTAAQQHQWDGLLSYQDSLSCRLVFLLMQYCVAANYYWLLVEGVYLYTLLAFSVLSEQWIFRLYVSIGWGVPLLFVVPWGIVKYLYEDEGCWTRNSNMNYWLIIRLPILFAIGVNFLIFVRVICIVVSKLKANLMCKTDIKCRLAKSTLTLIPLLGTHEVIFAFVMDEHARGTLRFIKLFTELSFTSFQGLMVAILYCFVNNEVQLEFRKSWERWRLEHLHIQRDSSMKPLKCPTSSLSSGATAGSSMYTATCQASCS
T2 sequence (P47871 26-477): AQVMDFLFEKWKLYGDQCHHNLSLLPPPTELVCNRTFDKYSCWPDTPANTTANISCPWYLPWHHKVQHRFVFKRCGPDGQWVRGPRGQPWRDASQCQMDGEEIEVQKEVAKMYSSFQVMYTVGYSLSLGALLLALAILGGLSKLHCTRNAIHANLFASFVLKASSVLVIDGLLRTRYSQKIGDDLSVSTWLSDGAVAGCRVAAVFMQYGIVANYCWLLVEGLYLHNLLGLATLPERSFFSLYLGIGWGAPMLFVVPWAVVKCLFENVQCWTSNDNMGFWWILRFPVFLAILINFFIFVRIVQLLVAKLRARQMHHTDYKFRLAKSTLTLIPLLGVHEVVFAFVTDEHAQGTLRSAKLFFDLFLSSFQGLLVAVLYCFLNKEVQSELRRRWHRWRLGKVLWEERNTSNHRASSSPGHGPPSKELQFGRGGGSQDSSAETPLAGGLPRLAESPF

Row | pEC50 [1, 4] | pEC50 [2, 5] | pEC50 [2, 6] | pEC50 [3, 7] | pEC50 [3, 8] | EC50 (GLP-1R (INS1e assay)) [pM] | pEC50 (GLP-1R (INS1e assay); [9]) | pEC50 (GLP-1R (INS1e assay); [10]) | pEC50 [1, 11] | EC50 [1] [pM] | Structure (SMILES)
1 | 11.32 | ≤ 7.66 | ≤ 7.66 | ≤ 7.66 | ≤ 7.66 | 122 | 9.98 | 9.86 | – | – | CC[C@H](C)[C@H](NC(=O)[C@H](Cc1ccccc1)NC(=O)[C@H](CCC(=O)O)NC(=O)[C@H](CCCCN)NC(=O)[C@H](C)NC(=O)[C@H](C)NC(=O)[C@H](CCC(N)=O)NC(=O)CNC(=O)[C@H](CCC(=O)O)NC(=O)[C@H](CC(C)C)NC(=O)[C@H](Cc1ccc(O)cc1)NC(=O)[C@H](CO)NC(=O)[C@H](CO)NC(=O)[C@@H](NC(=O)[C@H](CC(=O)O)NC(=O)[C@H](CO)NC(=O)[C@@H](NC(=O)[C@H](Cc1ccccc1)NC(=O)[C@@H](NC(=O)CNC(=O)[C@H](CCC(=O)O)NC(=O)C(C)(C)NC(=O)[C@@H](N)Cc1c[nH]cn1)[C@@H](C)O)[C@@H](C)O)C(C)C)C(=O)N[C@@H](C)C(=O)N[C@@H](Cc1c[nH]c2ccccc12)C(=O)N[C@@H](CC(C)C)C(=O)N[C@H](C(=O)N[C@@H](CCCCN)C(=O)NCC(=O)N[C@@H](CCCNC(=N)N)C(=O)N[C@@H](CCCCNC(=O)COCCOCCNC(=O)COCCOCCNC(=O)CC[C@H](NC(=O)CCCCCCCCCCCCCCCCC(=O)O)C(=O)O)C(N)=O)C(C)C [compound 6]
2 | 11.16 | ≤ 7.51 | ≤ 7.51 | ≤ 7.51 | ≤ 7.51 | 187 | 9.68 | 9.78 | 10.96 | 8.7 | CC[C@H](C)[C@H](NC(=O)[C@](C)(Cc1ccccc1)NC(=O)[C@H](CCC(=O)O)NC(=O)[C@H](CCC(=O)O)NC(=O)[C@H](C)NC(=O)[C@H](C)NC(=O)[C@H](CCC(=O)O)NC(=O)CNC(=O)[C@H](CCC(=O)O)NC(=O)[C@H](CC(C)C)NC(=O)[C@](C)(Cc1ccccc1)NC(=O)[C@H](CO)NC(=O)[C@](C)(CO)NC(=O)[C@@H](NC(=O)[C@H](CC(=O)O)NC(=O)[C@H](CO)NC(=O)[C@@H](NC(=O)[C@](C)(Cc1ccccc1)NC(=O)[C@H](CO)NC(=O)CNC(=O)[C@H](CCC(=O)O)NC(=O)C(C)(C)NC(=O)[C@@H](N)Cc1c[nH]cn1)[C@@H](C)O)C(C)C)C(=O)N[C@@H](C)C(=O)N[C@@](C)(Cc1ccccc1)C(=O)N[C@H](C(=O)N[C@H](C(=O)N[C@@](C)(CCCCN)C(=O)NCC(=O)NCC(N)=O)C(C)C)C(C)C [compound 42] (H-H[Aib]EGS[αMeF]TSDV[αMeS]S[αMeF]LEGEAAEE[αMeF]IA[αMeF]VV[αMeK]GG-NH2)
3 | 8.42 | ≤ 7.59 | ≤ 7.59 | ≤ 7.59 | ≤ 7.59 | 94600 | 7.12 | 6.95 | 8.48 | 3560 | CC[C@H](C)[C@H](NC(=O)[C@](C)(Cc1ccccc1)NC(=O)[C@H](CCC(=O)O)NC(=O)[C@H](CCCCNC(=O)COCCOCCNC(=O)COCCOCCNC(=O)CC[C@H](NC(=O)CCCCCCCCCCCCCCCCC(=O)O)C(=O)O)NC(=O)[C@H](C)NC(=O)[C@H](C)NC(=O)[C@H](CCC(=O)O)NC(=O)CNC(=O)[C@H](CCC(=O)O)NC(=O)[C@H](CC(C)C)NC(=O)[C@](C)(Cc1ccccc1)NC(=O)[C@H](CO)NC(=O)[C@](C)(CO)NC(=O)[C@@H](NC(=O)[C@H](CC(=O)O)NC(=O)[C@H](CO)NC(=O)[C@@H](NC(=O)[C@H](Cc1ccccc1)NC(=O)[C@H](CO)NC(=O)CNC(=O)[C@H](CCC(=O)O)NC(=O)C(C)(C)NC(=O)[C@@H](N)Cc1c[nH]cn1)[C@@H](C)O)C(C)C)C(=O)N[C@@H](C)C(=O)N[C@@](C)(Cc1ccccc1)C(=O)N[C@H](C(=O)N[C@H](C(=O)N[C@@](C)(CCCCN)C(=O)NCC(=O)NCC(N)=O)C(C)C)C(C)C [compound 45]
